Like-named read-outs stand apart in the source and are kept apart here.

From US10390536B2, “Methods, compounds and compositions for repelling insects and/or arachnids” (National Center for Scientific Research “Demokritos”, priority 2013, dated 2019) come the findings set out here.

Common to all, as to assay type: in vivo
Assay [1] deals with Anopheles gambiae (Giles) ss strain 16CSS female mosquitoes. The assay is described as follows: warm body repellence assay (mosquito landings). Conditions: for repellent activity in the warm body assay (in words): candidate compounds, initially 1.0-5.0 μg/cm^2 (about 5-31.5 nmole/cm^2). On the procedure: To test the behavior of female mosquitoes to an essential oil containing OBP binding components, a previously described repellence assay [Kröber et al. (2010). An In Vitro Assay for Testing Mosquito Repellents Employing a Warm Body and Carbon Dioxide as a Behavioral Activator. Journal of the American Mosquito Control Association 26(4) 381-386] was conducted that measures the number of mosquito landings on a warm surface onto which an essential oil containing at least one candidate compound was applied.
To conduct a repellency assay, a selected essential oil or ethanol negative control was applied to a warm body at a dose of about 3.8 μg/cm^2 and allowed to dry for 40 seconds in order to allow evaporation of the solvent before introduction into the test cage with mosquitoes. As positive control for repellence, DEET dissolved in ethanol was applied to the warm body at the same dose. The treated warm body in conjunction with a pulse of carbon dioxide was introduced into the test cage containing fifty Anopheles gambiae (Giles) ss strain 16CSS female mosquitoes that were 4-11 days old and the number of mosquito landings on the warm body occurring within a 2-minute period was counted. Each candidate compound was tested in five different cages (i.e., 250 female mosquitoes) in a randomized design, and the ethanol control and up to four candidate compounds were tested in each cage. Raw data on numbers of landings by mosquitoes were analyzed using a linear mixed model accounting for treatment, experimental day, the individual cage, the number of females per cage and the level of the carbon dioxide pulse in ppm using R (R Development Core Team, 2010) and the packages LME4 (Bates and Maechler, Ime4: Linear mixed-effects models using {S4} classes.{R} package version 0.999375-32, 2009) and NLME (Pinheiro et al, nlme: Linear and Nonlinear Mixed Effects Models, 2010; the R Development Core Team, R: A Language and Environment for Statistical Computing, 2010). Repellent values were calculated from counted landings on treatments versus the overall landings on pooled controls.
To test the behavior of female mosquitoes to a candidate compound identified in Example 5, behavioral assays were made using the identified compounds. The repellent assay was performed as described in Example 3, except that candidate compounds were dissolved in ethanol and tested initially at doses between 1.0 and 5.0 μg/cm^2 (about 5-31.5 nmole/cm^2) and, whenever necessary, at lower and/or higher doses as well. Besides the compounds identified in Example 5, compounds related to these were also tested including ethyl-cinnamate and butyl-cinnamate (Table 4).
To test the behavior of female mosquitoes to various combinations of candidate compounds identified in Example 6, repellence assays were made as in Example 3. These repellent assays were made to compare the effectiveness of the strongest repellent compounds identified in Example 6, including, without limitation, carvacrol, ethyl cinnamate, butyl cinnamate, and cumin alcohol with that of DEET.
The doses tested were 2, 4, 6 10 and 20 nmol/cm^2 for the single compounds. The binary 50:50 mixtures were tested at 2, 6, 10 and 20 nmol/cm^2, with each compound making up half the amount tested, so that, for example, the 2 nmol/cm^2 concentration in column A+B represents 1 nmol/cm^2 of A and 1 nmol/cm^2 of B in a binary mixture. DEET was also tested at 25 nmol (top response) and carvacrol was tested at the additional dose of 2.5 nmol (second from left within its column). As an indication, DEET at 20 nmol/cm^2=3.8 μg/cm^2. Mosquitoes were activated using a puff of CO2 from a gas tank upon introduction of the warm body into the test cage containing 50±5 A. gambiae females and mosquito landings were counted for 2 minutes. Each treatment (dose) was tested using five test cages, i.e. on a total of 250 female A. gambiae. […]

Another assay concerns Anopheles gambiae s.l. As to the kind of experiment: experimental hut field trial of spatial repellence, Anopheles. Conditions: single compound, 1 ml in open vial in MM-X trap. On the procedure:
(§1) To test the effects of repellent compounds or compositions disclosed herein on mosquitoes in a controlled environment resembling actual living quarters and conditions, field trials with standardized experimental huts were conducted at Kainji Dam in North Central Nigeria.
(§2) Six such huts were built in a straight line, and the distance between huts was 11 meters. These huts follow a traditional square design, the walls are built with concrete blocks that are subsequently plastered with cement, each wall has a window. The ceiling is plywood and the roof is thatched with eaves that are open, thereby allowing free flow of air into and out of the hut, and thus entry and exit of mosquitoes. There is a door for entry and exit. Two opposing sides of each hut have window exit traps and screened verandas to capture mosquitoes leaving via the windows or eaves. Each hut is raised off the ground on a concrete platform and surrounded by a moat filled with water in order to prevent ants from entering. Each hut is fitted with a mattress and an untreated bed net for sleepers. These huts are similar in design and concept to those used previously elsewhere for studying mosquito behavior and measuring the efficacy of various mosquito control products or intervention methods in Tanzania and Gambia. For design parameters refer to WHOPES 2005. The huts are adjacent to a tributary of the River Niger at a distance of 10 km from the Kainji Dam site and face rice fields known to harbor permanent mosquito breeding sites. The mosquitoes endemic to this area of Nigeria are highly endophillic, that is, they rest mainly indoors.
(§3) Human volunteers that participated as sleepers in this field trial were provided with anti-malarial chemical prophylaxis on a weekly basis, and the protocols used herein were reviewed and approved by the Research Ethics Review Committee of the Nigerian Institute of Medical Research. Six male adult volunteers, aged between 25 and 35 years old, were recruited to sleep in the huts described above. Sleepers were allocated to huts randomly for each series of trials, and this randomization process occurred nightly. The volunteers entered the huts by 21:00 each night and remained inside the huts until 06:30 the following morning. Each morning, the windows were closed and the exit traps blocked with a piece of cloth to prevent mosquitoes that entered from exiting. The traps were then put in a freezer at −20° C. to kill all the mosquitoes before being emptied for identification. By means of a sucking aspirator the verandas and rooms were visually searched for live mosquitoes and any insects found were collected in labelled cups. A 10-minute search was conducted for each hut (room and veranda traps). The exit traps were emptied into a labelled cup and all the mosquitoes placed in the freezer at −20° C. for about 30 minutes before morphological identification.
(§4) The Mosquito Magnet trap Model-X (MM-X trap made by the firm formerly known as American Biophysics (ABC), USA) is a 12V battery operated counter-flow trap that was used as the repellent dispersing device to evaluate the efficacy of repellent compounds or compositions disclosed herein. Four compounds, carvacrol, cumin alcohol, ethyl cinnamate, and butyl cinnamate, were evaluated in comparison to DEET as a nonproprietary conventional repellent in a first experiment. The chemical compounds were provided in liquid form: carvacrol (98%), butyl cinnamate (98%), ethyl cinnamate (98%), cumin alcohol (97%) and DEET (97%). […]

For another assay, the system named is Culex spp. The assay is described as follows: experimental hut field trial of spatial repellence, Culex. To be noted: single compound, 1 ml in open vial in MM-X trap. The procedure:
as §1, §2, §3, §4

The mark [2] stands for this setting: 2 nmol (per cm^2, total for mixtures, 50:50).
Setting [3] is: 4 nmol (per cm^2, total for mixtures, 50:50).
Setting [4] is: 6 nmol (per cm^2, total for mixtures, 50:50).
The mark [5] stands for this setting: 10 nmol (per cm^2, total for mixtures, 50:50).
The mark [6] stands for this setting: 20 nmol (per cm^2, total for mixtures, 50:50).
[7] abbreviates: Anopheles gambiae, 2 min, read-out: Median Repellency (%).

On to `CCN(CC)C(=O)c1cccc(C)c1` [DEET, N,N-diethyl-3-methylbenzamide, reference compound], for which the Median repellence % came out at 2% in assay [1] (setting [2]); 41% in assay [1] (setting [3]); 80% in assay [1] (setting [4]); 96% in assay [1] (setting [5]); 98% in assay [1] (setting [6]); 100% in assay [1] (25 nmol (per cm^2)). The median repellency (%) at 20 nmol/cm2 in assay [1] (Anopheles gambiae, 2 min, 20 nmole per cm^2, read-out: Median Repellency (%)) turned out to be 98.5%. The “mosquito counts on the inside walls of the huts (in words)” value with Anopheles gambiae s.l. and in the assay on Culex spp. was “reduced mosquito counts on the inside walls” in each case.

With `Cc1ccc(C(C)C)cc1O` [carvacrol, 5-isopropyl-2-methylphenol], the Median repellence % in assay [1] (setting [2]) is recorded as 13%; in assay [1] (setting [3]), 55%; in assay [1] (setting [4]), 40%; in assay [1] (setting [5]), 59%; in assay [1] (25 nmol (per cm^2)) it was 93%. In addition, the median repellency (%) at 25 nmol/cm2 in assay [1] (setting [7]) turned out to be 93.3%. Moreover, in assay [1], the “repellent activity in the warm body assay (in words)” value was “activity comparable to DEET”. In assay [1] (total concentration 2 nmole/cm^2), the “repellent activity (in words)” value is on record as “retained repellent activity”. For the same compound, the “mosquito counts on the inside walls of the huts (in words)” value in the assay with Anopheles gambiae s.l. and with Culex spp. was “reduced mosquito counts on the inside walls” throughout.

On to `CC(C)c1ccc(CO)cc1` [cumin alcohol], for which the Median repellence % in assay [1] (setting [2]) was −4%; in assay [1] (setting [3]) it was 38%; in assay [1] (setting [4]), 46%; in assay [1] (setting [5]) it was 53%; in assay [1] (setting [6]) it was 93%. Also, in assay [1] (setting [7]), the median repellency (%) at 20 nmol/cm2 worked out at 92.3%. Further, the “repellent activity in the warm body assay (in words)” value in assay [1] was “activity comparable to DEET”. Besides, the “spatial repellent effect, induced exophily (in words)” value in the assay on Anopheles gambiae s.l. (per night) and in the assay on Culex spp. (per night) was “significantly lower than that of DEET” throughout.
